Columns and labels:
[1] = target: T1, Tyrosine-protein phosphatase non-receptor type 11 (Homo sapiens, UniProt Q06124); assay: Inhibition of SHP2 (unknown origin)
T1 sequence (Q06124 whole entry): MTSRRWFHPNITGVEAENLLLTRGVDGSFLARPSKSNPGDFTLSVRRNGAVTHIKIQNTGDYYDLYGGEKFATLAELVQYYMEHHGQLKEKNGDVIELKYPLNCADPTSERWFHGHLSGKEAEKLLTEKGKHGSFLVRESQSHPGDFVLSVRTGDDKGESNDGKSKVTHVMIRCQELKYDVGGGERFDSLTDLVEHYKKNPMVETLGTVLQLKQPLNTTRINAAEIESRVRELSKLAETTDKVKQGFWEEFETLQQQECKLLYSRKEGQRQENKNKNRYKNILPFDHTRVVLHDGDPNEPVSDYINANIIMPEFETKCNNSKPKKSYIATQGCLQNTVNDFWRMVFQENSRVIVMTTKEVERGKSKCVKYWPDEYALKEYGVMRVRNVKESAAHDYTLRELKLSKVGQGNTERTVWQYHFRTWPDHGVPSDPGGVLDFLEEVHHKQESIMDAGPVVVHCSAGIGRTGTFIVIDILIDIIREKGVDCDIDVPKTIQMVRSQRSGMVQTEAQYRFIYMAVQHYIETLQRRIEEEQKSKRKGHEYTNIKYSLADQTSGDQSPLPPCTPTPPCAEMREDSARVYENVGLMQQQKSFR

[2] = target: T1, Tyrosine-protein phosphatase non-receptor type 11; assay: Degradation of wildtype SHP2 in human MV411 cells; type: cell-based; settings: mv4-11
[3] = target: Tyrosine-protein phosphatase non-receptor type 11 (Homo sapiens, UniProt Q06124, F285S); assay: Inhibition of SHP2 F285S mutant (unknown origin) using DiFMUP as substrate incubated for 1 hr followed by substrate addition measured after 30 mins by plate reader method
Tyrosine-protein phosphatase non-receptor type 11 (Homo sapiens, UniProt Q06124, F285S), sequence (Q06124 2-593 F285S limits assumed): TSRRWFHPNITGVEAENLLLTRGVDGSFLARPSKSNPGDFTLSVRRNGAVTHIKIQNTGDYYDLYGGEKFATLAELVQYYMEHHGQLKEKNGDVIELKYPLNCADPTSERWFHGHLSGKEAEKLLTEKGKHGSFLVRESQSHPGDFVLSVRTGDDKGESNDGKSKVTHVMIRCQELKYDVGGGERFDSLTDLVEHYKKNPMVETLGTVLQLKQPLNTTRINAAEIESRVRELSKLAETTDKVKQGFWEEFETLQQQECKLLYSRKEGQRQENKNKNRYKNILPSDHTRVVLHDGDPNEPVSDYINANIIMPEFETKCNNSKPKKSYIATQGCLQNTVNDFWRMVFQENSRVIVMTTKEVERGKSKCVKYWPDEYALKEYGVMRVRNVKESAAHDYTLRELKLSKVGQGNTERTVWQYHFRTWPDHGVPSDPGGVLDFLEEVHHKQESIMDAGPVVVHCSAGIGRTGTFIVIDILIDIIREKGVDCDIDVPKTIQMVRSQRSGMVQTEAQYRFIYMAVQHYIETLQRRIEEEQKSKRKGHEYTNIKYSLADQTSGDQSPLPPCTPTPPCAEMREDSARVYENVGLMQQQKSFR

[4] = target: T1, Tyrosine-protein phosphatase non-receptor type 11; assay: Inhibition of wildtype SHP2 (unknown origin)

## O=C(O)c1cc(O)c(=O)c2c(O)c(O)ccc2c1 [7-DESHYDROXYPYROGALLIN-4-CARBOXYLIC ACID]
[1]
  IC50: 2100 nM

## C=C/C(=C/C(=O)C[C@H](C)C[C@@H](C)CC[C@H](O)[C@H](C)C(=O)C[C@@H](O)[C@H](C)[C@@H](C)OC(=O)C[C@@H](O)/C(C(=O)O)=C(\C)C(=O)O)CC
[1]
  IC50: 29000 nM

## C[C@@H]1OCC2(CCN(c3cnc(Sc4cccc(NC(=O)CCC(=O)NCCCOCCOCCOCCCNc5cccc6c5C(=O)N(C5CCC(=O)NC5=O)C6=O)c4Cl)c(N)n3)CC2)[C@@H]1N (some centres not stated)
[2]
  DC50: 6 nM

## Cc1nc(N2CCC3(CC2)CO[C@@H](C)[C@H]3N)cnc1-c1ccc(OCCOCCOCCCOCCCOCCCOCCCOCCOCCNCC(=O)COc2cccc3c2C(=O)N(C2CCC(=O)NC2=O)C3=O)c(Cl)c1Cl (some centres not stated)
[3]
  IC50: 22.5 nM

## NC(=O)c1cc[n+](CC2=C(C(=O)O)N3C(=O)[C@@H](NC(=O)[C@@H](c4ccccc4)S(=O)(=O)O)[C@@H]3SC2)cc1
[1]
  IC50: 16800 nM

## COC(=O)c1cc(NC2=NC(=O)/C(=C/c3ccc(C)cc3)S2)ccc1O
[1]
  IC50: 50 nM

## CC1(NCc2cn(CCOCCOCCOCCOCCNc3cccc4c3C(=O)N(C3CCC(=O)NC3=O)C4=O)nn2)CCN(c2cnc(-c3cccc(Cl)c3Cl)c(N)n2)CC1 (configuration not stated)
[4]
  IC50: 714 nM
